Data: patent publication US20060035907A1, “Methods of treating abnormal cell growth using c-MET and m-TOR inhibitors” (priority 2004, published 2006)

What was measured:
[1] = test system: TPR-MET transformed BaF3 cells; test: Cell cycle analysis (propidiumiodide, FACS); format: cell-based, murine; details: 18 h
Experimental: Cell cycle analysis. Fixed cells were stained with propidiumiodide and cell cycle parameters analyzed by FACS analysis.
(§1) Referring to FIG. 2, TPR-MET transformed BaF3 cells were treated for 18 h with either DMSO or the indicated amount of PHA665752 (n=3). A: Annexin V and propidiumiodide staining was determined by flow cytometry. B: Activity of caspase-3 was determined in cell lysate (n=3). C: The percentage of cells in different cell cycle phases was determined by flow cytometry after propidiumiodide staining (n =3).

caspase-3 = test: Caspase-3 activity in cell lysates; format: cell-based, murine; details: compared to DMSO treated cells, 18 h, n=3, p<0.03
Experimental: (§2) Apoptosis assays. The activity of caspase-3-was measured in cell lysates (CaspACE Assay System, Promega) and Annexin V positive staining was determined by FACS analysis (Annexin-V-Fluos Staining Kit, Roche Diagnostics) according to the manufacturer's directions in cells that were either treated with PHA665752 or the solvent DMSO.
as §1

[2] = test system: tyrosine phosphorylation of cellular proteins in BCR-ABL transformed BaF3 cells; test: Immunoblotting, tyrosine phosphorylation of cellular proteins in BCR-ABL transformed BaF3 cells; format: cell-based, murine; details: BCR-ABL transformed BaF3 cells (data not shown)
Experimental: (§3) Immunoblotting. Proteins were extracted from whole cells by lysing them in a Tris buffer (50 mM, pH 8.0) containing NaCl (150 mM), NP40 (1%, v/v), deoxycholic acid (0.5%, w/v), sodium dodecylsulfate (0.1%, w/v), NaF (1 mM), Na3VO4 (1 mM) and glycerol (10%, v/v) (Sigma, St. Louis, Mo.) supplemented with a protease inhibitor cocktail (complete, Roche, Indianapolis, Ind.). Polyclonal antibodies against p70-S6K (Biosource International, Camarillo, Calif.), total c-MET (C-12, Santa Cruz, Santa Cruz, Calif.), phosphatidylinositol-3′-kinase (Upstate Biotechnology, Lake Placid, N.Y.) and phosphorylated AKT[Ser473] or p70-S6K[Thr421/Ser424] (Cell Signaling, Beverly, Mass.), phospho-MET[Tyr1230/1234/1235] (Biosource International, Camarillo, Calif.) as well as phosphotyrosine (4G10, Upstate Biotechnology, Lake Placid, N.Y.) were used for immunoblotting.

parental BaF3 cells = test: Cell growth of IL-3 stimulated parental BaF3 cells; format: cell-based, murine; details: 0.2 μM, 72 hour culture (data not shown)
[3] = test system: tyrosine phosphorylation of cellular proteins in BaF3.TPR-MET cells; test: Immunoblotting, tyrosine phosphorylation of cellular proteins in BaF3.TPR-MET cells; format: cell-based, murine; details: anti-phosphotyrosine antibody (4G10), FIG. 4A
Experimental: as §3
(§4) Referring to FIG. 4, phosphorylation of cellular proteins was determined by immunoblotting in whole cell lysate as indicated using anti-phosphotyrosine antibody (4G10) (A), total c-MET antibody, anti-pY1230/1234/1235-MET antibody (recognizing the corresponding pY361/365/366 sites in TPR-MET), anti-pY1349-MET (recognizing the pY480 site in TPR-MET) and anti-pY1365-MET (recognizing the pY496 site in TPR-MET) phospho-antobodies (B), and phospho-AKT and phospho-S6K antibodies (C). […]

p70-S6K[Thr421/Ser424] = test: Immunoblotting, phospho-p70-S6K[Thr421/Ser424] in TPR-MET transformed BaF3 cells; format: cell-based, murine; details: FIG. 4C
Experimental: as §3, §4

[4] = test system: TPR-MET transformed BaF3 cells; test: Apoptosis assay, Annexin V / propidiumiodide staining by FACS; format: cell-based, murine; details: 0.2 µM, 18 h
Experimental: as §2, §1

AKT[Ser473] = test: Immunoblotting, phospho-AKT[Ser473] in TPR-MET transformed BaF3 cells; format: cell-based, murine; details: FIG. 4C
Experimental: as §3, §4

[5] = test system: BCR-ABL transformed BaF3 cells; test: Cell growth of BCR-ABL transformed BaF3 cells; format: cell-based, murine
Experimental: (§5) Cells. The murine pre-B cell line BaF3 was grown in RPMI 1640 containing 10% fetal calf serum and 10% WEHI-conditioned medium as a source of murine IL-3. BaF3 cell lines transfected with a BCR/ABL, TEUABL, TEUJAK2, or TEUPDGFβR cDNA were grown in the absence of growth factors. A TPR/MET expressing BaF3 cell line was generated by transfection of an expression vector containing the TPR/MET cDNA as previously described (Sattler, M., Pride, Y. B., Ma, P., Gramlich, J. L., Chu, S. C., Quinnan, L. A., Shirazian, S., Liang, C., Podar, K., Christensen, J. G. & Salgia, R. (2003). Cancer Res, 63, 5462-9.). The number of viable cells after treatment with DMSO or PHA665752 was determined using an MTT assay (In Vitro Toxicology Assay Kit, Sigma, St. Louis, Mo.) or trypan blue exclusion.
(§6) Referring to FIG. 1, BaF3 cells lines transformed by tyrosine kinase oncogenes were used to determine cell growth (A-C) or transwell migration (D) in response to the small molecule c-MET kinase inhibitor PHA665752. A: The relative growth of BaF3 cells transformed by TPR-MET in response to different concentrations of PHA665752 was determined after 18 h (n=3). […] D: Cells were treated for 18 hr with the indicated dose of PHA665752 and the spontaneous transwell migration relative to DMSO-treated cells determined (n=4).

TPR-MET = target: T1, TPR-MET (Homo sapiens, UniProt P08581); test: Immunoblotting, TPR-MET autophosphorylation with phosphospecific antibodies; format: cell-based; details: TPR-MET transformed BaF3 cells, FIG. 4B
T1 construct: TPR portion (fusion partner, nucleoprotein TPR; human entry would be P12270); expressed in transfected cells; host or cells: BaF3 (murine pre-B cell line); the other entry of the earlier key: TPR (P12270, Nucleoprotein TPR)
Experimental: as §3, §4

[6] = test system: TEL-JAK2 transformed BaF3 cells; test: Cell growth of TEL-JAK2 transformed BaF3 cells; format: cell-based, murine; details: 0.2 μM, 18 hours, FIG. 1C
Experimental: as §5, §6

BaF3.TPR-MET cells = test: Transwell migration assay; format: cell-based, murine; details: Mus musculus, compared to DMSO treated cells, n=4, read-out: inhibition of the cell migration
Experimental: (§7) Referring to FIG. 1, BaF3 cells lines transformed by tyrosine kinase oncogenes were used to determine cell growth (A-C) or transwell migration (D) in response to the small molecule c-MET kinase inhibitor PHA665752. A: The relative growth of BaF3 cells transformed by TPR-MET in response to different concentrations of PHA665752 was determined after 18 h (n=3). B: TPR-MET transformed BaF3 cells were either left untreated (♦) or treated (▴) with PHA665752 (1 μM) for the indicated time in the presence or absence of IL-3 (n=3). C: BaF3 cells transformed by tyrosine kinase oncogenes were treated for 18 h with PHA665752 (1 μM) (n=3). D: Cells were treated for 18 hr with the indicated dose of PHA665752 and the spontaneous transwell migration relative to DMSO-treated cells determined (n=4).

[7] = test system: TEL-ABL transformed BaF3 cells; test: Cell growth of TEL-ABL transformed BaF3 cells; format: cell-based, murine; details: 0.2 μM, 18 hours, FIG. 1C
Experimental: as §5, §6

[8] = test system: TEL-PDGFFBR transformed BaF3 cells; test: Cell growth of TEL-PDGFFBR transformed BaF3 cells; format: cell-based, murine; details: 0.2 μM, 18 hours, FIG. 1C
Experimental: as §5, §6

[9] = test system: TPR-MET transformed BaF3 cells; test: Cell growth of TPR-MET transformed BaF3 cells (MTT assay or trypan blue exclusion); format: cell-based, murine
Experimental: as §5, §7
Referring to FIG. 5, the relative growth of BaF3 cells transformed by TPR-MET in response to different concentrations of rapamycin (0.01 nM to 10 nM) was determined in the presence (▴) or absence (▪) of PHA665752 (0.5 μM) after a 3 day culture (n=3).

T1 sequence (P08581 with tags, fused parts or gaps): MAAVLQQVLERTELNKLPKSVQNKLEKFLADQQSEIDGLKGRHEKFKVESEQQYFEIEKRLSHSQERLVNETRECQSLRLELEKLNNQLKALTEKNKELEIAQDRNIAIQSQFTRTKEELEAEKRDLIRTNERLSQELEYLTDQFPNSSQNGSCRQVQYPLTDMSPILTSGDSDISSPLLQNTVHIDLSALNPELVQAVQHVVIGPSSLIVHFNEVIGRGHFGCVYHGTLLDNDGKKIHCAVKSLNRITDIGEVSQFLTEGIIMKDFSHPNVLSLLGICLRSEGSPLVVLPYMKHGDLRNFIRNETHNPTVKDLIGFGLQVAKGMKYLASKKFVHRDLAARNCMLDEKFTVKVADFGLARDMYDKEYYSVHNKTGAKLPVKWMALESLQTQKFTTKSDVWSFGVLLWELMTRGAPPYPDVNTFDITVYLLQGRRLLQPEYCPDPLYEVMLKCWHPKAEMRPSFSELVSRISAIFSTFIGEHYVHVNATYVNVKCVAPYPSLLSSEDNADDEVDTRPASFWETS

autophosphorylation in the catalytic tyrosine kinase domain at Tyr361/365/366, Tyr480 and Tyr496 (TPR-MET): inhibits autophosphorylation
IC50 ([9]; Mus musculus, BaF3.TPR-MET cells, after 18 h, FIG. 1A, read-out: IC50, inhibition of cell growth): < 60 nM
Compound: Cc1[nH]c(/C=C2\C(=O)Nc3ccc(S(=O)(=O)Cc4c(Cl)cccc4Cl)cc32)c(C)c1C(=O)N1CCC[C@@H]1CN1CCCC1 [PHA665752, (3Z)-5-[(2,6-dichlorobenzyl)sulfonyl]-3-[(3,5-dimethyl-4-{[(2R)-2-(pyrrolidin-1-ylmethyl)pyrrolidin-1-yl]carbonyl}-1H-pyrrol-2-yl)methylene]-1,3-dihydro-2H-indol-2-one]
percentage of cells in G2/M-phase ([1]; 0.2 μM, DMSO 12.2%): 5.5%
percentage of cells in G1-phase ([1]; 0.2 μM, DMSO 42.4%): 77.0%
percentage of cells in S-phase ([1]; 0.2 μM, DMSO 45.4%): 17.5%
cells in sub-G1-phase ([1]; consistent with apoptotic cells): increase of cells in sub-G1-phase
increase in caspase-3 activity (caspase-3): 3.5±0.7 fold
tyrosine phosphorylation of cellular proteins [2]: did not alter tyrosine phosphorylation of cellular proteins
growth inhibitory effect (parental BaF3 cells): did not observe a significant growth inhibitory effect
tyrosine phosphorylation of cellular proteins [3]: reduced tyrosine phosphorylation of cellular proteins in a dose dependent manner
phosphorylation of the mTOR substrate p70-S6K[Thr421/Ser424] (p70-S6K[Thr421/Ser424]): reduced phosphorylation
cells in early apoptosis (Annexin V positive) [4]: 13.9±1.0%
cells in late apoptosis (Annexin V plus propidiumiodide positive) [4]: 19.2±1.8%
number of apoptotic cells (of total population) ([4]; control cells 5%): 33.1%
serine phosphorylation of AKT[Ser473] (AKT[Ser473]): reduced serine phosphorylation
inhibition of cell growth ([5]; 0.2 μM, 18 hours, BCR-ABL transformed BaF3 cells, FIG. 1C): did not inhibit cell growth
effect on cell growth in the presence of IL-3 ([5]; BCR-ABL transformed cells, control experiment, presence of IL-3, 72 hour culture, FIG. 1B): only little effect on cell growth
inhibition of cell growth [6]: did not inhibit cell growth
inhibition at 0.2 µM (BaF3.TPR-MET cells): 92.5 ± 3%
inhibition of cell growth [7]: did not inhibit cell growth
inhibition of cell growth [8]: did not inhibit cell growth
effect on cell growth in the absence of IL-3 ([9]; BaF3.TPR-MET, absence of IL-3, 72 hour culture, PHA665752 (1 μM) per FIG. 1B legend): completely blocked cell growth
effect on cell growth in the presence of IL-3 ([9]; TPR-MET transformed cells, presence of IL-3, 72 hour culture, PHA665752 (1 μM) per FIG. 1B legend): only little effect on cell growth
